These results are taken from patent US20260062412A1, “NITROGEN-CONTAINING HETEROCYCLIC COMPOUND HAVING MYT1 INHIBITORY ACTIVITY” (CHUGAI SEIYAKU KABUSHIKI KAISHA, priority 2023, published 2026).

For this assay, the target named is MYT1 protein (Homo sapiens (Human), UniProt Q99640). Briefly: Test for binding to ATP binding site of MYT1 (Kinase Tracer 178 / Eu-Anti-GST antibody TR-FRET). The settings on record: ATP binding site of MYT1, 30 minutes at room temperature. As for the experimental part:
The binding capacity of each compound to the ATP binding site of MYT1 Kinase protein was evaluated. 5× Kinase Buffer A (manufactured by Thermo Fisher Scientific Inc., PV3189) was diluted to 5 times with Milli-Q water, thereby preparing 1× Kinase Buffer. Using 1× Kinase Buffer, MYT1 protein (manufactured by Carna Biosciences, Inc.) was diluted to a concentration of 0.005 μM and Eu-Anti-GST Antibody was diluted to a concentration of 1 μM. […] To a 96 well-plate, 2.5 μL of a compound diluted with DMSO was added. […] The mixture was well mixed and then allowed to stand at room temperature for 30 minutes. Thereafter, fluorescence wavelengths of 665 nm and 615 nm generated by irradiation with excitation light of 340 nm were detected using Envision (manufactured by PerkinElmer). The proportion of Tracer bound to MYT1 protein was calculated for every condition by dividing the intensity at the fluorescence wavelength of 665 nm by the intensity at the fluorescence wavelength of 615 nm.

MYT1 protein, sequence (Q99640 whole entry): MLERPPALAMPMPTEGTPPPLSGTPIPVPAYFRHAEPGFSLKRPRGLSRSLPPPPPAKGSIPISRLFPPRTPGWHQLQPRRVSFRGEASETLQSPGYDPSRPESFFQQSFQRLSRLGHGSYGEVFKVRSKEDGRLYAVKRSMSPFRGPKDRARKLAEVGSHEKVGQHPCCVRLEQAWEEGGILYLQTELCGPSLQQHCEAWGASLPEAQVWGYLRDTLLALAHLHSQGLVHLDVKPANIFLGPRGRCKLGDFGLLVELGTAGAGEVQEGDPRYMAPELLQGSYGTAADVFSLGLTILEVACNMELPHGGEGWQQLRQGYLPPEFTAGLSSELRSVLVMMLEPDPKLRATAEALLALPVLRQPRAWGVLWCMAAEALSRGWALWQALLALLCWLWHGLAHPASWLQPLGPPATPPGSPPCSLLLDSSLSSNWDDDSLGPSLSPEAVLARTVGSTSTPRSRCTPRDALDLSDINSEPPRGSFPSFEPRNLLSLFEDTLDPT

Turning to `Nc1c(-c2c(F)ccc3[nH]ncc23)c2cc(C3CC3)c3ncccc3c2[nH]c1=O` (atropisomer, axis not shown) [Compound C157, (R)-3-amino-6-cyclopropyl-4-(5-fluoro-1H-indazol-4-yl)-1H-1,7-phenanthrolin-2-one], the IC50 turned out to be 310 nM. The value for `Nc1c(-c2c(F)ccc3[nH]ncc23)c2cc(C3CC3)c3ncccc3c2[nH]c1=O` (atropisomer, axis not shown) [Compound C158, (S)-3-amino-6-cyclopropyl-4-(5-fluoro-1H-indazol-4-yl)-1H-1,7-phenanthrolin-2-one] was 1.9 nM. The value for `CC(C)Oc1cc2c(-c3ccc(Cl)c4[nH]ncc34)c(N)c(=O)[nH]c2cc1F` [Compound A1, 3-Amino-4-(7-chloro-1H-indazol-4-yl)-7-fluoro-6-propan-2-yloxy-1H-quinolin-2-one] was 29 nM; that for `Nc1c(-c2ccc(Cl)c3[nH]ncc23)c2cc(OCCC(F)F)c(F)cc2[nH]c1=O` [Compound A2, 3-Amino-4-(7-chloro-1H-indazol-4-yl)-6-(3,3-difluoropropoxy)-7-fluoro-1H-quinolin-2-one] was 9.3 nM. The value for `Nc1c(-c2ccc(Cl)c3[nH]ncc23)c2cc(OCC3CC3)c(F)cc2[nH]c1=O` [Compound A3, 3-Amino-4-(7-chloro-1H-indazol-4-yl)-6-(cyclopropylmethoxy)-7-fluoro-1H-quinolin-2-one] was 8.5 nM; that for `Nc1c(-c2ccc(Cl)c3[nH]ncc23)c2cc(O[C@H]3C[C@H](F)C3)c(F)cc2[nH]c1=O` [Compound A4, 3-Amino-4-(7-chloro-1H-indazol-4-yl)-7-fluoro-6-((1r,3r)-3-fluorocyclobutyl)oxy-1H-quinolin-2-one] was 3.8 nM; that for `N#C[C@H]1C[C@H](Oc2cc3c(-c4ccc(Cl)c5[nH]ncc45)c(N)c(=O)[nH]c3cc2F)C1` [Compound A5, (1r,3r)-3-[[3-Amino-4-(7-chloro-1H-indazol-4-yl)-7-fluoro-2-oxo-1H-quinolin-6-yl]oxy]cyclobutane-1-carbonitrile] was 1.8 nM. For `Nc1c(-c2ccc(Cl)c3[nH]ncc23)c2cc(OCCCF)c(F)cc2[nH]c1=O` [Compound A6, 3-Amino-4-(7-chloro-1H-indazol-4-yl)-7-fluoro-6-(3-fluoropropoxy)-1H-quinolin-2-one], the IC50 amounted to 3 nM. The value for `Nc1c(-c2ccc(Cl)c3[nH]ncc23)c2cc(OC3CCC3)c(F)cc2[nH]c1=O` [Compound A7, 3-Amino-4-(7-chloro-1H-indazol-4-yl)-6-cyclobutyloxy-7-fluoro-1H-quinolin-2-one] was 4.4 nM; that for `CC(C)Oc1cc2c(-c3ccc(Cl)c4[nH]ncc34)c(N)c(=O)[nH]c2cc1Cl` [Compound A8, 3-Amino-7-chloro-4-(7-chloro-1H-indazol-4-yl)-6-propan-2-yloxy-1H-quinolin-2-one] was 23 nM; that for `Nc1c(-c2ccc(Cl)c3[nH]ncc23)c2cc(OCCC(F)F)c(Cl)cc2[nH]c1=O` [Compound A9, 3-Amino-7-chloro-4-(7-chloro-1H-indazol-4-yl)-6-(3,3-difluoropropoxy)-1H-quinolin-2-one] was 3.9 nM. Under `Nc1c(-c2ccc(Cl)c3[nH]ncc23)c2cc(OC3CCC3)c(Cl)cc2[nH]c1=O` [Compound A10, 3-Amino-7-chloro-4-(7-chloro-1H-indazol-4-yl)-6-cyclobutyloxy-1H-quinolin-2-one] stands 4.3 nM; under `Nc1c(-c2ccc(Cl)c3[nH]ncc23)c2cc(O[C@H]3C[C@H](F)C3)c(Cl)cc2[nH]c1=O` [Compound A11, 3-Amino-7-chloro-4-(7-chloro-1H-indazol-4-yl)-6-((1r,3r)-3-fluorocyclobutyl)oxy-1H-quinolin-2-one], 3.9 nM; under `Nc1c(-c2ccc(Cl)c3[nH]ncc23)c2cc(OCC3CC3)c(Cl)cc2[nH]c1=O` [Compound A13, 3-Amino-7-chloro-4-(7-chloro-1H-indazol-4-yl)-6-(cyclopropylmethoxy)-1H-quinolin-2-one], 18 nM.

Consider `Nc1c(-c2ccc(Cl)c3[nH]ncc23)c2cc(OCCCF)c(Cl)cc2[nH]c1=O` [Compound A14, 3-Amino-7-chloro-4-(7-chloro-1H-indazol-4-yl)-6-(3-fluoropropoxy)-1H-quinolin-2-one], for which the IC50 worked out at 2.1 nM.

`Cc1nc2[nH]c(=O)c(N)c(-c3ccc(Cl)c4[nH]ncc34)c2cc1O[C@H]1C[C@H](F)C1` [Compound A15, 3-Amino-4-(7-chloro-1H-indazol-4-yl)-6-((1r,3r)-3-fluorocyclobutyl)oxy-7-methyl-1H-1,8-naphthyridin-2-one] came in with an IC50 of 13 nM. The value for `Cc1nc2[nH]c(=O)c(N)c(-c3ccc(Cl)c4[nH]ncc34)c2cc1O[C@H]1C[C@H](C#N)C1` [Compound A16, (1r,3r)-3-[[6-Amino-5-(7-chloro-1H-indazol-4-yl)-2-methyl-7-oxo-8H-1,8-naphthyridine-3-yl]oxy]cyclobutane-1-carbonitrile] was 5 nM; that for `Nc1c(-c2ccc(Cl)c3[nH]ncc23)c2cc(Cl)cc(Br)c2[nH]c1=O` [Compound A17, 3-Amino-8-bromo-6-chloro-4-(7-chloro-1H-indazol-4-yl)-1H-quinolin-2-one] was 27 nM; that for `C#Cc1cc(Cl)cc2c(-c3ccc(Cl)c4[nH]ncc34)c(N)c(=O)[nH]c12` [Compound A18, 3-Amino-6-chloro-4-(7-chloro-1H-indazol-4-yl)-8-ethynyl-1H-quinolin-2-one] was 87 nM. The value for `CC(C)c1cc(Cl)cc2c(-c3ccc(Cl)c4[nH]ncc34)c(N)c(=O)[nH]c12` [Compound A19, 3-Amino-6-chloro-4-(7-chloro-1H-indazol-4-yl)-8-propan-2-yl-1H-quinolin-2-one] was 600 nM; that for `Nc1c(-c2ccc(Cl)c3[nH]ncc23)c2cc(Cl)cc(Cl)c2[nH]c1=O` [Compound A20, 3-Amino-6,8-dichloro-4-(7-chloro-1H-indazol-4-yl)-1H-quinolin-2-one] was 12 nM; that for `N#Cc1cc(Cl)cc2c(-c3ccc(Cl)c4[nH]ncc34)c(N)c(=O)[nH]c12` [Compound A21, 3-Amino-6-chloro-4-(7-chloro-1H-indazol-4-yl)-2-oxo-1H-quinoline-8-carbonitrile] was 20 nM. Under `CCCc1cc(Cl)cc2c(-c3ccc(Cl)c4[nH]ncc34)c(N)c(=O)[nH]c12` [Compound A22, 3-Amino-6-chloro-4-(7-chloro-1H-indazol-4-yl)-8-propyl-1H-quinolin-2-one] stands 270 nM; under `C=Cc1cc(Cl)cc2c(-c3ccc(Cl)c4[nH]ncc34)c(N)c(=O)[nH]c12` [Compound A23, 3-Amino-6-chloro-4-(7-chloro-1H-indazol-4-yl)-8-ethenyl-1H-quinolin-2-one], 34 nM. With `Nc1c(-c2ccc(Cl)c3[nH]ncc23)c2cc(Cl)cc(C3CC3)c2[nH]c1=O` [Compound A24, 3-Amino-6-chloro-4-(7-chloro-1H-indazol-4-yl)-8-cyclopropyl-1H-quinolin-2-one], the IC50 is 110 nM. The value for `CCc1cc(Cl)cc2c(-c3ccc(Cl)c4[nH]ncc34)c(N)c(=O)[nH]c12` [Compound A25, 3-Amino-6-chloro-4-(7-chloro-1H-indazol-4-yl)-8-ethyl-1H-quinolin-2-one] was 45 nM; that for `Cc1cc(Cl)cc2c(-c3ccc(Cl)c4[nH]ncc34)c(N)c(=O)[nH]c12` [Compound A26, 3-Amino-6-chloro-4-(7-chloro-1H-indazol-4-yl)-8-methyl-1H-quinolin-2-one] was 11 nM. Under `CCc1cc2[nH]c(=O)c(N)c(-c3ccc(Cl)c4[nH]ncc34)c2cc1Cl` [Compound A28, 3-Amino-6-chloro-4-(7-chloro-1H-indazol-4-yl)-7-ethyl-1H-quinolin-2-one] stands 47 nM; under `N#Cc1cc2[nH]c(=O)c(N)c(-c3ccc(Cl)c4[nH]ncc34)c2cc1Cl` [Compound A29, 3-Amino-6-chloro-4-(7-chloro-1H-indazol-4-yl)-2-oxo-1H-quinoline-7-carbonitrile], 29 nM. Under `CC(=O)c1ccc2[nH]c(=O)c(N)c(-c3ccc(Cl)c4[nH]ncc34)c2c1` [Compound A31, 6-Acetyl-3-amino-4-(7-chloro-1H-indazol-4-yl)-1H-quinolin-2-one] stands 7.6 nM; under `CC(O)c1ccc2[nH]c(=O)c(N)c(-c3ccc(Cl)c4[nH]ncc34)c2c1` (stereo not shown) [Compound A32, 3-Amino-4-(7-chloro-1H-indazol-4-yl)-6-(1-hydroxyethyl)-1H-quinolin-2-one], 16 nM. Compound `Nc1c(-c2ccc(Cl)c3[nH]ncc23)c2cc(C3CCNCC3)ccc2[nH]c1=O` [Compound A33, 3-Amino-4-(7-chloro-1H-indazol-4-yl)-6-piperidin-4-yl-1H-quinolin-2-one; 2,2,2-trifluoroacetate] displayed an IC50 of 13 nM.

In turn, `CC(C)N1CCC(c2ccc3[nH]c(=O)c(N)c(-c4ccc(Cl)c5[nH]ncc45)c3c2)CC1` [Compound A34, 3-Amino-4-(7-chloro-1H-indazol-4-yl)-6-(1-propan-2-ylpiperidin-4-yl)-1H-quinolin-2-one] showed an IC50 of 26 nM. As for `Nc1c(-c2ccc(Cl)c3[nH]ncc23)c2cc(C3CCN(C4CCC4)CC3)ccc2[nH]c1=O` [Compound A35, 3-Amino-4-(7-chloro-1H-indazol-4-yl)-6-(1-cyclobutylpiperidin-4-yl)-1H-quinolin-2-one], the IC50 was 19 nM.
